Reference: ChEMBL document CHEMBL1138184, “Synthesis and structure-activity relationship studies of 1,3-diarylprop-2-yn-1-ones: dual inhibitors of cyclooxygenases and lipoxygenases” (J Med Chem, 2006)

What was measured:
5-lipoxygenase = biological target: T1, 5-lipoxygenase (Solanum tuberosum, UniProt O49150); test: Inhibitory activity against potato 5LOX
T1 sequence (O49150 whole entry): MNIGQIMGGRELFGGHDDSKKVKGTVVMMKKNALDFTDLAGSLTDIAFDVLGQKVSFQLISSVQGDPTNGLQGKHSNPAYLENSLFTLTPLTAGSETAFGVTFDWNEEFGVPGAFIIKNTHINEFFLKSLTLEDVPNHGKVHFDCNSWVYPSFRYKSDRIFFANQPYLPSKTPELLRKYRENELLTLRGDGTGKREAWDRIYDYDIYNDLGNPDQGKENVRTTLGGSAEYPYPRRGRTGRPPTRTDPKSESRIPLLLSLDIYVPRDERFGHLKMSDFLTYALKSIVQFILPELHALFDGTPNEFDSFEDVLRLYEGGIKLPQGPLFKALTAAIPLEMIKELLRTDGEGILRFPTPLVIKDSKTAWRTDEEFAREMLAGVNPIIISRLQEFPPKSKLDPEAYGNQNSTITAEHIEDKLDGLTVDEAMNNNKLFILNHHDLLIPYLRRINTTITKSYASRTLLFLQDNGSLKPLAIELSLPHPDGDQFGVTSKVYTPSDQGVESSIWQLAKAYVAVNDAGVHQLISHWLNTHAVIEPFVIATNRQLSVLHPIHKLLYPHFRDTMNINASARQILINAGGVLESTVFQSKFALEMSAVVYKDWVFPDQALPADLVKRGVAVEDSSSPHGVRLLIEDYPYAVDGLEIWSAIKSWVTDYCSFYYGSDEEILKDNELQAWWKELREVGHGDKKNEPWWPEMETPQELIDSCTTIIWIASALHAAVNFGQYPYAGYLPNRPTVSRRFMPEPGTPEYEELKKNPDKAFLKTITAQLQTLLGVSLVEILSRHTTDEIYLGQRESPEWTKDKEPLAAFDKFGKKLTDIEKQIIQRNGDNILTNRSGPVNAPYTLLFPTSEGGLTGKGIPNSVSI

Rattus norvegicus [1] = test: Anti-inflammatory activity against carrageenan-induced edema in Sprague-Dawley rat paw after 3 hrs of 30 mg/kg, po; assay type: functional
Rattus norvegicus [2] = test: Inhibitory activity against 4% NaCl-induced abdominal constriction in Sprague-Dawley rat after 30 min of 30 mg/kg, po; assay type: functional; conditions: Abdomen, 0.5 h
Rattus norvegicus [3] = test: Inhibitory activity against 4% NaCl-induced abdominal constriction in Sprague-Dawley rat after 60 min of 30 mg/kg, po; assay type: functional; conditions: Abdomen, 1 h
[4] = biological target: T2, Prostaglandin G/H synthase 1 (Ovis aries, UniProt P05979); test: Inhibitory activity against ovine COX1
T2 sequence (P05979 whole entry): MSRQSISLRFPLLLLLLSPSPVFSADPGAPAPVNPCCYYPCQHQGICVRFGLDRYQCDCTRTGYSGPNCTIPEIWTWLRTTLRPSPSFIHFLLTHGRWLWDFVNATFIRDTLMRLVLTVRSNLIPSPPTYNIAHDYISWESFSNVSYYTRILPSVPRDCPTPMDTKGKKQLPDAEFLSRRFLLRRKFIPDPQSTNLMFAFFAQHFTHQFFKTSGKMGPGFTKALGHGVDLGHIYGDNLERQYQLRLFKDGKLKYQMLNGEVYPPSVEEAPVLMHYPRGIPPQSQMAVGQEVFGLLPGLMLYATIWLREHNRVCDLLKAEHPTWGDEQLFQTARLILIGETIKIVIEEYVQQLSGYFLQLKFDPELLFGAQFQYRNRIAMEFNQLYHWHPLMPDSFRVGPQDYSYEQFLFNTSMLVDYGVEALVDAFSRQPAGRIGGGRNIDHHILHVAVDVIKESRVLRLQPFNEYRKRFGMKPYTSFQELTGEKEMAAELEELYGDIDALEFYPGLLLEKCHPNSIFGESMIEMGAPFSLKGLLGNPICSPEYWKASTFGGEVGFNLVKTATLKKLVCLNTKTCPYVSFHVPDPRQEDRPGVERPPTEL

[5] = biological target: T3, Seed linoleate 13S-lipoxygenase-1 (Glycine max, UniProt P08170)
T3 sequence (P08170 whole entry): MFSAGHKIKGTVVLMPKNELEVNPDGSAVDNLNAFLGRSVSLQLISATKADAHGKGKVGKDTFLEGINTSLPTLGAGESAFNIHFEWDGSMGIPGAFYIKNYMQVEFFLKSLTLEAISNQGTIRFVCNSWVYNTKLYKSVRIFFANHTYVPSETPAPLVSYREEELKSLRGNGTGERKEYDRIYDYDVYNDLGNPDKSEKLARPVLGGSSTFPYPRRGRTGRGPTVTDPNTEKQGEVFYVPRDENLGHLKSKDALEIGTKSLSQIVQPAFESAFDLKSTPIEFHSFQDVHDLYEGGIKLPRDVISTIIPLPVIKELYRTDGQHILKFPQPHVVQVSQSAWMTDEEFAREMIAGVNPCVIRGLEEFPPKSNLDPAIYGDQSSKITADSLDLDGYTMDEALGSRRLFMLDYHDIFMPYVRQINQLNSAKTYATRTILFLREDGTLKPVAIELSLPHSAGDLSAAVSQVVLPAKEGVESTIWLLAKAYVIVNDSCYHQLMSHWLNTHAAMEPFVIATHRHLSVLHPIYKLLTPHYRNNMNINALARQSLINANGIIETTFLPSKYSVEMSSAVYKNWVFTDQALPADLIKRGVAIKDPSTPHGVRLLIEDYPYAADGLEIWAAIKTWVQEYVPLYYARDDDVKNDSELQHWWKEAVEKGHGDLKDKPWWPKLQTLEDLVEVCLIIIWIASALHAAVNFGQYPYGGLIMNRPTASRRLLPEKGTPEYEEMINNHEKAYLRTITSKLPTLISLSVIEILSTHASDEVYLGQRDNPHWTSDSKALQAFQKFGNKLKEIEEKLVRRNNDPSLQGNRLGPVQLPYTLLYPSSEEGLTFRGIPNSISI
Description: Inhibitory activity against soybean 15LOX

Structure (SMILES) | IC50 (5-lipoxygenase) | inhibition in vivo at 30 mg/kg (Rattus norvegicus [1]) | inhibition in vivo at 30 mg/kg (Rattus norvegicus [2]) | inhibition in vivo at 30 mg/kg (Rattus norvegicus [3]) | ED50 (Rattus norvegicus [1]) | IC50 [4] | IC50 [5]
CS(=O)(=O)c1ccc(C#CC(=O)c2ccc(C(F)(F)F)cc2)cc1 | > 10 µM | 16.2% | 38% | 66.2% |  |  | 
CS(=O)(=O)c1ccc(C#CC(=O)c2ccc(O)cc2)cc1 | 0.3 µM | 37.4% | 52.4% | 56.6% | 51.3 mg/kg |  | 
COc1cccc(C(=O)C#Cc2ccc(S(C)(=O)=O)cc2)c1 | 9 µM | 24.2% | 72.6% | 54.7% |  |  | 
COc1cc(C(=O)C#Cc2ccc(S(C)(=O)=O)cc2)cc(OC)c1OC | 7 µM | 35.7% | 60.2% | 46.2% | 113 mg/kg |  | 
Cc1ccc(C(=O)C#Cc2ccc(S(C)(=O)=O)cc2)cc1 | > 10 µM |  |  |  |  |  | 
COc1ccc(C(=O)C#Cc2ccc(S(C)(=O)=O)cc2)cc1O | > 10 µM |  |  |  |  |  | 
CS(=O)(=O)c1ccc(C#CC(=O)c2ccc(F)c(F)c2)cc1 | 0.4 µM | 6.8% | 50.8% | 46.1% |  |  | 
COc1ccc(C(=O)C#Cc2ccc(S(C)(=O)=O)cc2)cc1OC | 1 µM |  |  |  |  | 3.3 µM | > 10 µM
CS(=O)(=O)c1ccc(C#CC(=O)c2ccc([N+](=O)[O-])cc2)cc1 | 6.2 µM |  |  |  |  | 0.25 µM | > 10 µM
CCCCc1ccc(C(=O)C#Cc2ccc(S(C)(=O)=O)cc2)cc1 | 4.5 µM |  |  |  |  | > 100 µM | > 10 µM
CS(=O)(=O)c1ccc(C#CC(=O)c2cccc3ccccc23)cc1 | > 10 µM | 8.8% | 56.4% | 40.3% |  | > 100 µM | > 10 µM
CS(=O)(=O)c1ccc(C#CC(=O)c2ccno2)cc1 | 1.5 µM |  |  |  |  | 32.2 µM | > 10 µM
CC(C)c1ccc(C(=O)C#Cc2ccc(S(C)(=O)=O)cc2)cc1 |  | 48.1% | 40.7% | 53.7% | 35 mg/kg | 9.2 µM | 0.36 µM
COC(=O)c1ccc(C(=O)C#Cc2ccc(S(C)(=O)=O)cc2)cc1 | > 10 µM | 21.5% | 56.2% | 71.2% |  | > 100 µM | 5 µM
CS(=O)(=O)c1ccc(C#CC(=O)c2ccoc2)cc1 | 0.1 µM | 26.4% | 57.7% | 76.6% |  | 1 µM | > 10 µM
CS(=O)(=O)c1ccc(C#CC(=O)c2ccc(S(C)(=O)=O)cc2)cc1 | > 10 µM |  |  |  |  | > 100 µM | > 10 µM
COc1ccc(C(=O)C#Cc2ccc(S(C)(=O)=O)cc2)c2ccccc12 | > 10 µM | 24% | 56.7% | 36.7% |  | > 100 µM | 0.3 µM
CSc1ccc(C(=O)C#Cc2ccc(S(C)(=O)=O)cc2)cc1 |  |  |  |  |  | 9.2 µM | 0.36 µM
CCCc1ccc(C(=O)C#Cc2ccc(S(C)(=O)=O)cc2)cc1 | 3.2 µM |  |  |  |  | 3.2 µM | 3.2 µM
CS(=O)(=O)c1ccc(C#CC(=O)c2ccc(C#N)cc2)cc1 |  | 29.6% | 48.6% | 36.2% | 90 mg/kg |  | 
CS(=O)(=O)c1ccc(C#CC(=O)c2cccc(O)c2)cc1 | 0.3 µM |  |  |  |  |  | 
COc1ccc(C(=O)C#Cc2ccc(S(C)(=O)=O)cc2)cc1 | > 10 µM | 30.2% | 42.7% | 38.6% | 60.1 mg/kg |  | 
COc1cc(C(=O)C#Cc2ccc(S(C)(=O)=O)cc2)ccc1O | > 10 µM | 26% | 15.4% | 45.8% |  |  | 
CS(=O)(=O)c1ccc(C#CC(=O)c2cccc([N+](=O)[O-])c2)cc1 | > 10 µM |  |  |  |  | 2 µM | 3.5 µM
CS(=O)(=O)c1ccc(C#CC(=O)c2ccc(F)cc2)cc1 | > 10 µM | 26.3% | 83.8% | 72% |  |  | 
CC(=O)Oc1ccccc1C(=O)O [ASPIRIN] |  |  | 29.7% | 46.4% | 129 mg/kg |  | 
O=C(O)/C=C/c1ccc(O)c(O)c1 [CAFFEIC ACID] |  | 8.2% | 47.2% | 58.3% |  |  | 
CC(Cc1ccc(O)c(O)c1)C(C)Cc1ccc(O)c(O)c1 (stereo not given) [NORDIHYDROGUAIARETIC ACID] |  | 15.1% | 45.8% | 62.5% | 205 mg/kg |  | 
